From patent US12304890B2, “R-type pyridyloxycarboxylic acid, salt and ester derivative thereof, and preparation method therefor, and herbicidal composition and application thereof” (Qingdao Kingagroot Chemical Compound Co., Ltd., priority 2018, dated 2025)

Tests used:
Type in all cases: in vivo
Echinochloa crusgalli = assay: Post-emergence test experiment, Echinochloa crusgalli; conditions: 1000 g a.i./ha, 3 weeks in greenhouse, fresh weight inhibition
Experimental: (§1) The above described growth inhibition rate is fresh weight inhibition rate.
(§2) Post-emergence test experiment: Monocotyledonous and dicotyledonous weed seeds and main crop seeds (i. e. wheat, corn, rice, soybean, cotton, oilseed, millet and sorghum.) were put into a plastic pot loaded with soil. Then covered with 0.5-2 cm soil, the seeds were allowed to grow in good greenhouse environment. The test plants were treated at 2-3 leaf stage 2 weeks after sowing. The test compounds of the invention were dissolved with acetone respectively, then added with tween-80, and using 1.5 liters per hectare of an emulsible concentrate of methyl oleate as a synergist, and diluted by certain amount of water to certain concentration. The solution was sprayed to the plants with a sprayer. Then the plants were cultured for 3 weeks in the greenhouse, and the experiment result of weed controlling effect was listed in tables 4-5.

Digitaria sanguinalis = assay: Post-emergence test experiment, Digitaria sanguinalis; conditions: 1000 g a.i./ha, 3 weeks in greenhouse, fresh weight inhibition
Experimental: as §1, §2

[1] = system: Monocotyledonous and dicotyledonous weed seeds and main crop seeds; assay: Post-emergence test experiment, other weeds and crops (Table 4, 1000 g a.i./ha); conditions: 3 weeks in greenhouse, fresh weight inhibition
In short: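 Weed and crop seeds (wheat, corn, rice, soybean, cotton, oilseed, millet, sorghum) sown in soil pots in a greenhouse and sprayed at 2-3 leaf stage, 2 weeks after sowing. Compound in acetone/tween-80 with methyl oleate concentrate (1.5 L/ha) as synergist. Effect recorded as fresh-weight growth inhibition rate.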

Row | Compound | Activity level (growth inhibition rate), Echinochloa crusgalli (Echinochloa crusgalli) | Activity level (growth inhibition rate), Digitaria sanguinalis (Digitaria sanguinalis) | Activity level (growth inhibition rate), Abutilon theophrasti Medic. [1] | Activity level (growth inhibition rate), Galium aparine [1] | Activity level (growth inhibition rate), Monochoria Vaginalis [1]
1 | CCC(C)OC(=O)[C@@H](C)Oc1nc(F)c(Cl)c(N)c1Cl (stereo partly shown) [Compound 2-81] | 5 (Level 5: the growth inhibition rate is greater than 85%) | 5 (Level 5: the growth inhibition rate is greater than 85%) | 5 (Level 5: the growth inhibition rate is greater than 85%) | 5 (Level 5: the growth inhibition rate is greater than 85%) | 5 (Level 5: the growth inhibition rate is greater than 85%)
2 | CCC(C)SC(=O)[C@@H](C)Oc1nc(F)c(Cl)c(N)c1Cl (stereo partly shown) [Compound 2-82] | 5 (Level 5: the growth inhibition rate is greater than 85%) | 5 (Level 5: the growth inhibition rate is greater than 85%) | 5 (Level 5: the growth inhibition rate is greater than 85%) | 5 (Level 5: the growth inhibition rate is greater than 85%) | 5 (Level 5: the growth inhibition rate is greater than 85%)
3 | C[C@@H](Oc1nc(F)c(Cl)c(N)c1Cl)C(=O)OC(C)(C)C [Compound 2-83] | 5 (Level 5: the growth inhibition rate is greater than 85%) | 5 (Level 5: the growth inhibition rate is greater than 85%) | 5 (Level 5: the growth inhibition rate is greater than 85%) | 5 (Level 5: the growth inhibition rate is greater than 85%) | 5 (Level 5: the growth inhibition rate is greater than 85%)
4 | C[C@@H](Oc1nc(F)c(Cl)c(N)c1Cl)C(=O)SC(C)(C)C [Compound 2-84] | 5 (Level 5: the growth inhibition rate is greater than 85%) | 5 (Level 5: the growth inhibition rate is greater than 85%) | 5 (Level 5: the growth inhibition rate is greater than 85%) | 5 (Level 5: the growth inhibition rate is greater than 85%) | 5 (Level 5: the growth inhibition rate is greater than 85%)
5 | CCCCCOC(=O)[C@@H](C)Oc1nc(F)c(Cl)c(N)c1Cl [Compound 2-85] | 5 (Level 5: the growth inhibition rate is greater than 85%) | 5 (Level 5: the growth inhibition rate is greater than 85%) | 5 (Level 5: the growth inhibition rate is greater than 85%) | 5 (Level 5: the growth inhibition rate is greater than 85%) | 5 (Level 5: the growth inhibition rate is greater than 85%)
6 | CCC(C)COC(=O)[C@@H](C)Oc1nc(F)c(Cl)c(N)c1Cl (stereo partly shown) [Compound 2-87] | 5 (Level 5: the growth inhibition rate is greater than 85%) | 5 (Level 5: the growth inhibition rate is greater than 85%) | 5 (Level 5: the growth inhibition rate is greater than 85%) | 5 (Level 5: the growth inhibition rate is greater than 85%) | 5 (Level 5: the growth inhibition rate is greater than 85%)
7 | CCC(C)CSC(=O)[C@@H](C)Oc1nc(F)c(Cl)c(N)c1Cl (stereo partly shown) [Compound 2-88] | 5 (Level 5: the growth inhibition rate is greater than 85%) | 5 (Level 5: the growth inhibition rate is greater than 85%) | 5 (Level 5: the growth inhibition rate is greater than 85%) | 5 (Level 5: the growth inhibition rate is greater than 85%) | 5 (Level 5: the growth inhibition rate is greater than 85%)
8 | CC(C)CCOC(=O)[C@@H](C)Oc1nc(F)c(Cl)c(N)c1Cl [Compound 2-89] | 5 (Level 5: the growth inhibition rate is greater than 85%) | 5 (Level 5: the growth inhibition rate is greater than 85%) | 5 (Level 5: the growth inhibition rate is greater than 85%) | 5 (Level 5: the growth inhibition rate is greater than 85%) | 5 (Level 5: the growth inhibition rate is greater than 85%)
9 | CC(C)CCSC(=O)[C@@H](C)Oc1nc(F)c(Cl)c(N)c1Cl [Compound 2-90] | 5 (Level 5: the growth inhibition rate is greater than 85%) | 5 (Level 5: the growth inhibition rate is greater than 85%) | 5 (Level 5: the growth inhibition rate is greater than 85%) | 5 (Level 5: the growth inhibition rate is greater than 85%) | 5 (Level 5: the growth inhibition rate is greater than 85%)
10 | C[C@@H](Oc1nc(F)c(Cl)c(N)c1Cl)C(=O)OCC(C)(C)C [Compound 2-91] | 5 (Level 5: the growth inhibition rate is greater than 85%) | 5 (Level 5: the growth inhibition rate is greater than 85%) | 5 (Level 5: the growth inhibition rate is greater than 85%) | 5 (Level 5: the growth inhibition rate is greater than 85%) | 5 (Level 5: the growth inhibition rate is greater than 85%)
11 | C[C@@H](Oc1nc(F)c(Cl)c(N)c1Cl)C(=O)SCC(C)(C)C [Compound 2-92] | 5 (Level 5: the growth inhibition rate is greater than 85%) | 5 (Level 5: the growth inhibition rate is greater than 85%) | 5 (Level 5: the growth inhibition rate is greater than 85%) | 5 (Level 5: the growth inhibition rate is greater than 85%) | 5 (Level 5: the growth inhibition rate is greater than 85%)
12 | CCCC(C)OC(=O)[C@@H](C)Oc1nc(F)c(Cl)c(N)c1Cl (stereo partly shown) [Compound 2-93] | 5 (Level 5: the growth inhibition rate is greater than 85%) | 5 (Level 5: the growth inhibition rate is greater than 85%) | 5 (Level 5: the growth inhibition rate is greater than 85%) | 5 (Level 5: the growth inhibition rate is greater than 85%) | 5 (Level 5: the growth inhibition rate is greater than 85%)
13 | CCCC(C)SC(=O)[C@@H](C)Oc1nc(F)c(Cl)c(N)c1Cl (stereo partly shown) [Compound 2-94] | 5 (Level 5: the growth inhibition rate is greater than 85%) | 5 (Level 5: the growth inhibition rate is greater than 85%) | 5 (Level 5: the growth inhibition rate is greater than 85%) | 5 (Level 5: the growth inhibition rate is greater than 85%) | 5 (Level 5: the growth inhibition rate is greater than 85%)
14 | CC(C)C(C)OC(=O)[C@@H](C)Oc1nc(F)c(Cl)c(N)c1Cl (stereo partly shown) [Compound 2-95] | 5 (Level 5: the growth inhibition rate is greater than 85%) | 5 (Level 5: the growth inhibition rate is greater than 85%) | 5 (Level 5: the growth inhibition rate is greater than 85%) | 5 (Level 5: the growth inhibition rate is greater than 85%) | 5 (Level 5: the growth inhibition rate is greater than 85%)
